Laboratory results: patent US20250049709A1, “ZIPRASIDONE FORMULATIONS” (BELOTECA, INC., priority 2021, published 2025)
In brackets after ≈: the same amount, converted by molar mass. Structures can show the parent of a compound that is named as a salt. Where two headings read alike, the source gives them in different places.

What was measured:
[1] = cited from earlier work
[2] = pH value of 1% w/v aqueous ziprasidone suspension; format: physicochemical; conditions: 1% w/v aqueous ziprasidone suspension at 25° C.
Method: This pH value corresponds to a pH value of ziprasidone in water determined on a 1% w/v aqueous ziprasidone suspension at 25° C.

pH value of ziprasidone in water [2]	Molecule	solubility in water [1]	solubility in water ([1]; 25° C.)
	ziprasidone mesylate trihydrate	13 µg/mL	
	O=C1Cc2cc(CCN3CCN(c4nsc5ccccc45)CC3)c(Cl)cc2N1 [ziprasidone hydrochloride]	7.18 µg/mL	
~3.2	O=C1Cc2cc(CCN3CCN(c4nsc5ccccc45)CC3)c(Cl)cc2N1 [ziprasidone]		2130 µg/mL (≈ 5.16 mM)
